Legend:
medeka fish embryo = experiment: Effect of chemical substances on fish embryo development in cultivation chamber of microfluidic continuous flow device; format: in vivo, Medaka (Oryzias latipes); conditions: for death of the Medaka embryos: after 25 hours
Excerpt: A medeka fish embryo was introduced into the cultivation chamber using a pipette. The fish embryos maintain the same size until they hatch. Once all the embryos are transferred to the 8 wells of the microfluidic continuous flow device shown in FIG. 1, a coverslip is placed over the wells to seal them off.
In two different experiments EtOH (ethanol, 0-5%) and TAA ([…], 0-3%) were used as chemical substances to test the reaction of the fish embryo retained in the cultivation chamber of the microfluidic continuous flow device shown in FIG. 1. Both substances affect the liver (TAA induces lipid peroxidation which leads to liver damage). An over-dosage of both will lead to death. The flow rate in the microfluidic continuous flow device is about 1 ml/2.5 hours or 400 μl/h.

zebrafish = conditions: cited from earlier work

SMILES: CC1(C)O[C@@H]2C[C@H]3[C@@H]4CCC5=CC(=O)C=C[C@]5(C)[C@@]4(F)[C@@H](O)C[C@]3(C)[C@]2(C(=O)CO)O1 [TAA, triamcinolone acetonide]
- death of the Medaka embryos (medeka fish embryo; TAA 1.5, 2 and 2.5 v/v %): died
- death of the Medaka embryo (medeka fish embryo; TAA 3 v/v % (highest concentration), after 21 hours, stage 38): died and caused the death of the Medaka embryo
- death of the Medaka embryos (medeka fish embryo; TAA, the 4 highest concentrations): had died

SMILES: CNC(=O)Oc1cccc2ccccc12 [carbaryl]
- effects observed on early development (zebrafish): Red blood cell accumulation and delayed hatching

SMILES: CCO [EtOH, ethanol]
- intoxication of the embryo versus concentration (medeka fish embryo; EtOH 0 to 5 v/v %, over 25 hours): The higher the concentration of the EtOH, the intoxicated the embryo is
- effect on organs (medeka fish embryo; EtOH highest concentration (4.27% and 5%), 25 hours): the organs seem to be affected
- organ colour change (medeka fish embryo; ethanol, the higher concentrations): the organs turned black
- number of twitches (movements) of the embryo in the chamber (medeka fish embryo; rising ethanol concentration (0 to 5 v/v %)): the number of twitches rose with the ethanol concentration

Source: patent publication US20110269226A1, “Microfluidic Continuous Flow Device for Culturing Biological Material” (priority 2008, published 2011)
